Converted amounts (≈) assume the structure as drawn. Where two headings read alike, the source gives them in different places.
Experiments:
[1] = Solubility in water (photometry); assay type: physicochemical; settings: for solubility at 30 min: thermodynamic from solid
Procedure: The samples were dissolved in DMSO, diluted in series, and photometrically analyzed. The average molar absorption coefficient was calculated from the obtained optical densities of calibration solutions at the absorption maxima. Solubility values were determined as previously described by adding weighed amounts of compounds to distilled water followed by sonication (30 min), centrifugation (12,000 rpm, 10 min), and photometry.

[2] = tested on: influenza A/California/7/09/MA virus; assay type: in vivo, BALB/c mice
IAV = IAV virus yield reduction assay; assay type: cell-based, influenza A virus (H1N1, strain A/PR/8/34); settings: Influenza A virus; virus yield reduction in MDCK cells, MOI 1, 24 h, M ± SD; read-out: Antiviral Activity, EC50 ± SD, IAV
Text: (§1) The green monkey kidney (Vero) cell line originated from WHO Biologicals, Switzerland (10–87), and the Madin-Darby canine kidney (MDCK) cell line was obtained from the American Type Culture Collection (ATCC CCL-34).
(§2) Viruses and strains used in the present work were severe acute respiratory syndrome-related coronavirus 2 (SARS-CoV-2, strain PIK35, GISAID EPI_ISL_428852), Chikungunya virus (CHIKV, strain Nic, GenBank IDs MN271691-2) and influenza A virus (H1N1, strain A/PR/8/34, ATCC VR-95).
Compound solutions were prepared in DMSO (20 mg/mL). The compounds were weighed in 2 mg amounts and dissolved in 100 μL of DMSO. Then, a series of 3-fold dilutions was prepared, starting from 300 µg/mL, in a cultural medium. The MDCK cell monolayer was treated with compound dilutions and incubated for 1 h in a CO2 incubator at 37 °C. Untreated cells were used as negative control. Afterward, the virus was added (MOI 1), and cells were incubated for 24 h at 37 °C in a CO2 incubator. After incubation, the culture medium was collected, and viral yields were determined by titration. In brief, a series of 10-fold dilutions (10^−7–10^−1) of viral supernatants were prepared in a cultural medium and applied to daily MDCK cell monolayers. Infected cells were incubated for 72 h at 37 °C in a CO2 incubator. The presence of the virus in the culture supernatants was determined using the hemagglutination assay with a 1% suspension of chicken erythrocytes. Viral titer was calculated according to the Reed-and-Muench method and was expressed as 50% tissue infectious doses (TID50) per 100 μL of volume. Inhibition (%) was calculated by comparison with non-treated cells, and EC50 was calculated from inhibitory curves.

[3] = Cell viability assay in MDCK cells (MTT); assay type: cell-based, canine; settings: dog, read-out: Cytotoxicity, CC50 ± SD, MDCK
Procedure: as §1
Compound solutions were prepared in DMSO (20 mg/mL), and then 2-fold dilutions in cultural medium were prepared starting from 1000 μg/mL. One-day MDCK cell monolayers (over 95% confluency) in 96-well plates ([…]) were washed twice with serum-free alpha-MEM (Thermo-Fisher Scientific, USA) and treated with 100 μL of compound dilutions in 2 replicates. The plates were then incubated for 24 h at 37 °C in a CO2 incubator. Cell viability was assessed using the tetrazolium test (MTT, ApplyChem). Optical density was measured on a Wallac 1420 Victor2 microplate reader (Perkin Elmer, Ramsey, MN, USA) at 535 nm, then CC50 values were calculated.

CHIKV = CHIKV cytopathic effect (CPE) inhibition test; assay type: cell-based, Chikungunya virus (CHIKV, strain Nic); settings: for EC50: Chikungunya virus, 120 h, read-out: Antiviral Activity, EC50 ± SD, CHIKV; for Activity against CHIKV (in words): concentrations studied up to 100 μM
SARS-CoV-2 = SARS-CoV-2 cytopathic effect (CPE) inhibition test; assay type: cell-based, strain PIK35; settings: for EC50: Severe acute respiratory syndrome coronavirus 2, 120 h, CPE inhibition in Vero cells, 5 days, M ± SD, read-out: Antiviral Activity, EC50 ± SD, SARS-CoV-2; for Activity against SARS-CoV-2 (in words): concentrations studied up to 100 μM
Text: as §1, §2
The procedure was described previously. In brief, two-fold dilutions of the compounds were prepared in Dulbecco MEM (Chumakov FSC R&D IBP RAS, Russia) and mixed 1:1 with a virus suspension containing 50–200 TCID50 and incubated for 1 h at 37 °C in a CO2 incubator. The final concentration series started from 100 μM. Then, compound-virus mixtures were added to confluent Vero cell monolayers in 2 replicates. After incubation at 37 °C in a CO2-incubator for 5 days, CPE signs (cell death) were assessed via microscope, and 50% effective concentration (EC50) (compound concentration required to decrease CPE by 50%) was calculated using the Karber method.

[4] = Cell viability assay in Vero cells (resazurin); assay type: cell-based; settings: green monkey, 5 d, read-out: Cytotoxicity, CC50 ± SD, Vero
Procedure: as §1
Two-fold dilutions of the compounds (starting from 100 μM) were prepared in DMEM (Chumakov FSC R&D IBP RAS, Russia) and added to confluent cell monolayers. After 5 days of incubation (37 °C, 5% CO2), the cultural supernatant was substituted with a resazurin solution (25 μg/mL), followed by 4 h incubation (37 °C, 5% CO2). Then, 20 µL of 10% SDS were added to stop the reaction. Fluorescence intensity was measured with Promega GloMax-Multi Detection System (Ex525/Em580–640). Cells treated with dilutions of the compounds and DMSO, but not resazurin, were used to subtract the background fluorescence. All experimental procedures were performed in two replicates. Fluorescence curves were analyzed with Microsoft Excel 2013. 50% Cytotoxic concentrations (CC50) were calculated.

[5] = distilled water, sonication, centrifugation, photometry

SMILES | Solubility in water (in words) [1] | Solubility in Water [1, 5] | Average Life Expectancy (M ± SEM) ([2]; 20 mg/kg intragastric, BALB/c mice) | Protective Index (PI) ([2]; 20 mg/kg intragastric, […]) | Mortality Rate ([2]; mouse, in vivo) | Reduction in body weight (maximum) ([2]; mouse, in vivo) | EC50 (IAV) | CC50 at 24 h [3] | EC50 (CHIKV; CPE inhibition in Vero cells, 5 days, M ± SD) | EC50 (SARS-CoV-2) | CC50 at 5 days [4] | EC50 (CHIKV; Vero) | Activity against CHIKV (in words) (CHIKV) | Activity against SARS-CoV-2 (in words) (SARS-CoV-2) | solubility at 30 min [1, 5]
O=c1[nH]c(=O)n([C@@H]2O[C@H](CO)[C@@H](O)[C@@H]2O)cc1C#Cc1ccc2c3cccc4cccc(c5cccc1c52)c43 [aUY11, 5-(Perylen-3-yl)ethynyl-arabino-uridine, reference compound] | no solubility | insoluble | – | – | – | – | – | – | – | – | – | – | – | – | –
CCOC(=O)C1=C[C@@H](OC(CC)CC)[C@H](NC(C)=O)[C@@H](N)C1 [Tamiflu, Oseltamivir phosphate, reference compound] | – | – | 11.4 ± 1.1 days | 56% | 40% | 24.0% | 0.02 µM | > 100 µM | – | – | – | – | – | – | –
O=c1nc(NO)ccn1[C@@H]1O[C@H](CO)[C@@H](O)[C@H]1O [NHC, N^4-hydroxycytidine, reference compound] | – | – | – | – | – | – | – | – | 9.7 µM | 7.4 µM | > 100 µM | – | – | – | –
c1cc2cccc3c4ccc(-c5cn(CCCN6CCOCC6)nn5)c5cccc(c(c1)c23)c54 [Compound 2b, 4-(3-(4-(Perylen-3-yl)-1H-1,2,3-triazol-1-yl)propyl)morpholine] | – | – | – | – | – | – | 62 ± 22 µM | > 100 µM | – | > 100 µM | > 100 µM | > 100 µM | did not demonstrate any activity | did not demonstrate any activity | –
CC(C)[C@H](N)C(=O)O[C@@H]1[C@H](O)[C@@H](CO)O[C@H]1n1cc(C#Cc2ccc3c4cccc5cccc(c6cccc2c63)c54)c(=O)[nH]c1=O [Compound 8, 2′-O-L-Valinyl-5-(perylen-3-ylethynyl)uridine] | poor | – | – | – | – | – | 3.8 ± 1.3 µM | > 100 µM | – | 1.28 ± 0.4 µM | > 100 µM | 0.55 ± 0.33 µM | – | – | 0.1 mM (≈ 61.8 µg/mL)
CC(C)[C@H](NC(=O)OC(C)(C)C)C(=O)O[C@@H]1[C@H](O)[C@@H](CO)O[C@H]1n1cc(C#Cc2ccc3c4cccc5cccc(c6cccc2c63)c54)c(=O)[nH]c1=O [Compound 7, 2′-O-(N-Boc-L-valinyl)-5-(perylen-3-ylethynyl)uridine] | – | – | – | – | – | – | 4.6 ± 1 µM | 62 ± 24 µM | – | 0.075 ± 0.018 µM | 98 ± 17 µM | < 0.016 µM | – | – | –
C[N+]1(CCn2cc(-c3ccc4c5cccc6cccc(c7cccc3c74)c65)nn2)CCOCC1.[I-] [Compound 3a, 4-Methyl-4-(2-(4-(perylen-3-yl)-1H-1,2,3-triazol-1-yl)ethyl)morpholin-4-ium iodide] | – | – | – | – | – | – | 49 ± 19 µM | > 100 µM | – | 1.88 ± 0.88 µM | > 100 µM | 11.3 ± 9 µM | – | – | 3.4 mM
CC(C)[Si]1(C(C)C)OC[C@H]2O[C@@H](n3cc(C#Cc4ccc5c6cccc7cccc(c8cccc4c85)c76)c(=O)[nH]c3=O)[C@H](O)[C@@H]2O[Si](C(C)C)(C(C)C)O1 [Compound 5, 3′,5′-O-(Tetraisopropyldisiloxan-1,3-diyl)-5-(perylen-3-ylethynyl)uridine] | – | – | – | – | – | – | – | – | – | > 100 µM | > 100 µM | 1.17 ± 0.55 µM | – | did not demonstrate any activity | –
c1cc2cccc3c4ccc(-c5cn(CCN6CCOCC6)nn5)c5cccc(c(c1)c23)c54 [Compound 2a, 4-(2-(4-(Perylen-3-yl)-1H-1,2,3-triazol-1-yl)ethyl)morpholine] | – | – | – | – | – | – | 20.6 ± 8 µM | > 100 µM | – | 11.3 ± 1.8 µM | > 100 µM | 0.47 ± 0.16 µM | – | – | –
CC(C)[C@H](NC(=O)OC(C)(C)C)C(=O)O[C@@H]1[C@@H]2O[Si](C(C)C)(C(C)C)O[Si](C(C)C)(C(C)C)OC[C@H]2O[C@H]1n1cc(C#Cc2ccc3c4cccc5cccc(c6cccc2c63)c54)c(=O)[nH]c1=O [Compound 6, 2′-O-(N-Boc-L-valinyl)-3′,5′-O-(tetraisopropyldisiloxane-1,3-diyl)-5-(perylen-3-ylethynyl)uridine] | – | – | – | – | – | – | 31 ± 10 µM | > 100 µM | – | > 100 µM | > 100 µM | > 100 µM | did not demonstrate any activity | did not demonstrate any activity | –
C[N+]1(CCCn2cc(-c3ccc4c5cccc6cccc(c7cccc3c74)c65)nn2)CCOCC1.[I-] [Compound 3b, 4-Methyl-4-(3-(4-(Perylen-3-yl)-1H-1,2,3-triazol-1-yl)propyl)morpholin-4-ium iodide] | – | – | – | – | – | – | > 100 µM | > 100 µM | – | 9.2 ± 4.3 µM | > 100 µM | 10.7 ± 2.6 µM | had activity | had activity | 5 mM

Reference: PMC9610897, “Cationic Perylene Antivirals with Aqueous Solubility for Studies In Vivo” (Pharmaceuticals, 2022)
